From the supplement of paper PMC10307832

Key:
Assay in all cases: relative viability (nuclei count vs DMSO), 5 days (fraction); higher = more cells survive
[1] = compound: COc1cc(Nc2ncc3c(n2)-c2ccc(Cl)cc2C(c2c(F)cccc2OC)=NC3)ccc1C(=O)O [Alisertib] + Nc1nc2[nH]cc(CCc3ccc(C(=O)N[C@@H](CCC(=O)O)C(=O)O)cc3)c2c(=O)[nH]1 [Pemetrexed] (partner 0.2 µM)
Summary of the method: (§1)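 A single step with final 0.05% Triton X-100, 1% formaldehyde and 1 ug/ml Hoechst fixed the cells and stained nuclei 5 days after treatment. Lung cancer cell lines in 1536-well plates had been treated by pin tool the day after seeding with one drug alone or a fixed anchor-drug dose plus five library-drug doses (not always all listed) in √10 steps, and nuclei were counted on 4× images. Relative viability is the ratio of nuclei in treated wells to nuclei in vehicle wells, taken as the median of duplicate plates.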

[2] = compound: COc1cc(Nc2ncc3c(n2)-c2ccc(Cl)cc2C(c2c(F)cccc2OC)=NC3)ccc1C(=O)O [Alisertib] + Cc1nc(Nc2ncc(C(=O)Nc3c(C)cccc3Cl)s2)cc(N2CCN(CCO)CC2)n1 [Dasatinib] (partner 0.075 µM)
Summary of the method: as §1

[3] = compound: COc1cc(Nc2ncc3c(n2)-c2ccc(Cl)cc2C(c2c(F)cccc2OC)=NC3)ccc1C(=O)O [Alisertib] + CS(=O)(=O)CCNCc1ccc(-c2ccc3ncnc(Nc4ccc(OCc5cccc(F)c5)c(Cl)c4)c3c2)o1 [Lapatinib] (partner 2 µM)
Summary of the method: as §1

[4] = compound: COc1cc(Nc2ncc3c(n2)-c2ccc(Cl)cc2C(c2c(F)cccc2OC)=NC3)ccc1C(=O)O [Alisertib] + C[C@@H](Oc1cc(-c2cnn(C3CCNCC3)c2)cnc1N)c1c(Cl)ccc(F)c1Cl [Crizotinib] (partner 1 µM)
Summary of the method: as §1

Cell Line	relative viability ([1]; first compound 0.005 µM)	relative viability ([1]; first compound 0.01581 µM)	relative viability ([1]; first compound 0.05 µM)	relative viability ([1]; first compound 0.1581 µM)	relative viability ([1]; first compound 0.5 µM)	relative viability ([2]; first compound 0.005 µM)	relative viability ([2]; first compound 0.01581 µM)	relative viability ([2]; first compound 0.05 µM)	relative viability ([2]; first compound 0.1581 µM)	relative viability ([2]; first compound 0.5 µM)	relative viability ([3]; first compound 0.005 µM)	relative viability ([3]; first compound 0.01581 µM)	relative viability ([3]; first compound 0.05 µM)	relative viability ([3]; first compound 0.1581 µM)	relative viability ([3]; first compound 0.5 µM)	relative viability ([4]; first compound 0.005 µM)	relative viability ([4]; first compound 0.01581 µM)	relative viability ([4]; first compound 0.05 µM)	relative viability ([4]; first compound 0.1581 µM)	relative viability ([4]; first compound 0.5 µM)
CAL-12T	1.14	1.15	0.242	0.235	0.176	0.275	0.158	0.0813	0.113	0.0899	0.556	0.526	0.195	0.198	0.169	0.613	0.232	0.142	0.166	0.109
COR-L23	0.197	0.196	0.189	0.179	0.134	0.486	0.439	0.23	0.0935	0.0796	0.929	0.759	0.47	0.165	0.124	0.571	0.48	0.17	0.151	0.102
NCI-H1755	0.443	0.399	0.386	0.321	0.34	0.382	0.467	0.356	0.221	0.0862	0.946	0.945	0.833	0.299	0.316	0.853	0.73	0.415	0.366	0.294
NCI-H1437	0.28	0.261	0.235	0.231	0.166	0.35	0.403	0.314	0.17	0.0967	0.729	0.576	0.45	0.218	0.13	0.855	0.878	0.45	0.338	0.141
NCI-H2085	0.638	0.896	0.837	0.27	0.294	0.233	0.203	0.207	0.184	0.171	0.752	0.692	0.422	0.306	0.323	0.757	0.693	0.33	0.391	0.388
H3255	0.516	0.572	0.457	0.309	0.255	0.328	0.445	0.279	0.242	0.292	0.277	0.256	0.269	0.169	0.176	0.909	0.765	0.662	0.205	0.174
NCI-H661	0.868	0.858	0.636	0.46	0.324	0.57	0.675	0.416	0.258	0.297	0.519	0.439	0.323	0.342	0.279	1.05	1.02	0.48	0.392	0.504
LOU-NH91	0.428	0.385	0.369	0.349	0.354	0.526	0.624	0.477	0.351	0.296	0.773	0.784	0.731	0.484	0.361	0.76	0.705	0.494	0.463	0.424
NCI-H1650	0.402	0.362	0.256	0.223	0.189	0.325	0.298	0.164	0.138	0.125	0.768	0.222	0.203	0.175	0.228	0.975	0.71	0.359	0.255	0.276
NCI-H3122	0.184	0.189	0.194	0.186	0.143	0.581	0.664	0.498	0.103	0.134	1.01	0.999	0.899	0.433	0.307	0.244	0.306	0.217	0.218	0.191
RERF-LC-KJ	0.441	0.466	0.415	0.273	0.216	0.73	0.672	0.366	0.187	0.17	0.844	0.713	0.673	0.318	0.201	0.831	0.662	0.692	0.206	0.196
NCI-H1651	0.509	0.495	0.339	0.199	0.173	0.357	0.293	0.204	0.151	0.163	0.716	0.589	0.434	0.192	0.193	0.898	0.807	0.41	0.204	0.256
NCI-H2087	0.641	0.632	0.423	0.163	0.144	0.776	0.628	0.137	0.113	0.123	1.16	0.724	0.245	0.188	0.183	0.893	0.609	0.176	0.225	0.209
